Test: confirmation of dissolution of the pentacene derivative in the solvent
Assay type: physicochemical
Protocol: Herein, all samples are compositions containing no test compound and including the pentacene derivative and/or the salt thereof and the solvent.
6,13-Diphenylpentacene (0.4 mg, produced by Sigma-Aldrich Co., Ltd.) represented by the following formula was prepared as the pentacene derivative represented by formula (A), and dissolved in a mixed liquid of water and deuterated ethanol (2 mL, pure water:ethanol=1:9% by mass) as the solvent, thereby preparing a sample.
6,13-Diphenylpentacene (0.5 mg) represented by the above formula, as the pentacene derivative represented by formula (A), was dissolved in a mixed liquid of benzene and polystyrene (1 mL, benzene:polystyrene=5:5% by mass) as the solvent, thereby preparing a sample.
(§1) 6,13-Diphenylpentacene (0.5 mg) represented by the above formula, as the pentacene derivative represented by formula (A), was dissolved in a mixed liquid of benzene and deuterated toluene (1 mL, benzene:deuterated toluene=1:9% by mass) as the solvent, thereby preparing a sample.
as §1, with “6,13-Dibiphenylpentacene (0.4 mg, produced by Luminescence Technology Crop.)” for “6,13-Diphenylpentacene (0.5 mg)”, “following” for “above”, “(2” for “(1”
(§2) 6,13-Bis[(triethylsilyl)ethynyl]pentacene (0.4 mg, produced by Sigma-Aldrich Co., Ltd.) represented by the following formula, as the pentacene derivative represented by formula (A), was dissolved in a mixed liquid of benzene and polystyrene (2 mL, benzene:polystyrene=5:5% by mass) as the solvent, thereby preparing a sample.
as §2, with “6,13-Bis[(triisopropylsilyl)ethynyl]pentacene” for “6,13-Bis[(triethylsilyl)ethynyl]pentacene”, “Tokyo Chemical Industry” for “Sigma-Aldrich”
Pentacene (0.4 mg, produced by Sigma-Aldrich Co., Ltd.) represented by the following formula, and a mixed liquid of benzene and deuterated toluene (2 mL, benzene:deuterated toluene=1:9% by mass) as the solvent were mixed, thereby preparing a composition for NMR measurement.

[1] = 0.4 mg in 2 mL mixed liquid of benzene and polystyrene (5:5 by mass)
[2] = 0.4 mg in 2 mL mixed liquid of benzene and deuterated toluene (1:9 by mass)

| Structure (SMILES) | dissolution in the solvent [1] | dissolution in the solvent [2] | other results |
| --- | --- | --- | --- |
| CC[Si](C#Cc1c2cc3ccccc3cc2c(C#C[Si](CC)(CC)CC)c2cc3ccccc3cc12)(CC)CC [6,13-bis[(triethylsilyl)ethynyl]pentacene] | completely dissolved |  |  |
| CC(C)[Si](C#Cc1c2cc3ccccc3cc2c(C#C[Si](C(C)C)(C(C)C)C(C)C)c2cc3ccccc3cc12)(C(C)C)C(C)C [6,13-bis[(triisopropylsilyl)ethynyl]pentacene] | completely dissolved |  |  |
| c1ccc(-c2ccc(-c3c4cc5ccccc5cc4c(-c4ccc(-c5ccccc5)cc4)c4cc5ccccc5cc34)cc2)cc1 [6,13-dibiphenylpentacene] |  | completely dissolved |  |
| c1ccc(-c2c3cc4ccccc4cc3c(-c3ccccc3)c3cc4ccccc4cc23)cc1 [6,13-diphenylpentacene] |  |  | dissolution in the solvent (0.4 mg in 2 mL mixed liquid of water and deuterated ethanol (1:9 by mass)): completely dissolved; dissolution in the solvent (0.5 mg in 1 mL mixed liquid of benzene and deuterated toluene (1:9 by mass)): completely dissolved; dissolution in the solvent (0.5 mg in 1 mL mixed liquid of benzene and polystyrene (5:5 by mass)): completely dissolved |
| c1ccc2cc3cc4cc5ccccc5cc4cc3cc2c1 [pentacene, Pentacene] |  | not almost dissolved |  |

From patent US20180188338A1, “Nuclear Spin Polarization Enhancing Method Through Dynamic Nuclear Polarization by Using Soluble Pentacene” (RIKEN, priority 2015, published 2018)
